Patent publication US12479877B2, “Methods for purifying steviol glycosides and uses of the same” (PureCircle Sdn. Bhd., priority 2010, dated 2025)
Values joined by “and” are separate entries in the source; they are usually repeats but may differ in a detail not shown here. Identical values can stand only once.

Key:
panelists = assay: Sensory properties in acidified water (pH 3.0) at 500 mg/L, 20 panelists; assay type: in vivo, human; conditions: 500 ppm, acidified water pH 3.0, 20 panelists
Experimental: The sensory properties of Reb X were evaluated in acidified water (pH 3.0 by phosphoric acid) at 500 mg/L concentration by 20 panelists.

[1] = Solubility of 600 ppm Reb X stock solution in citric buffer; assay type: physicochemical; conditions: 0.06% (w/v) in citric buffer at up to 52° C. for ca. 15-20 minutes
Experimental: The isosweetness levels of Reb X in a citric buffer system at room temperature and 4° C. were evaluated. A 600 ppm stock solution of Reb X was prepared by adding a mass of 0.15 g into a 250 mL sample of citric buffer (CB) solution. The mixture was moderately stirred at warmer temperature (up to ca. 52° C.) on a heated stirrer for about 15-20 minutes and then cooled. The citric buffer was prepared by adding 1.6 g citric acid, 0.6 g potassium citrate and 0.253 g sodium benzoate in 1 L of carbon-treated water. The pH of the mixture was 3.1. […] The controls of 0.75%, 2%, 4%, 6%, 8%, 10% and 15% sucrose equivalence (SE) were also prepared by adding sugar (w/v) into the CB. The mixtures were moderately stirred and then ready for the isosweetness determination test. The Reb X samples were then evaluated against the control sugar samples in citric buffer at room temperature (RT) and 4° C. (in an ice bath) by one experienced taster for an isosweetness determination using the controlled, multi-sip and swallow taste method.
Despite the stronger mouthfeel or texture effect (syrupy, thicker) at ca. 15% sucrose, it was difficult to determine the isosweetness levels for at least 400 ppm of Reb X due to its thinner mouthfeel but broader and more impact sweetness temporal profile as well as its significant sweet lingering.

[2] = Beverage formulations: taste properties compared with Reb A; assay type: in vivo, human

C=C1C[C@@]23CCC4[C@](C)(C(=O)OC5OC(CO)C(O)C(OC6OC(CO)C(O)C(O)C6O)C5OC5OC(CO)C(O)C(O)C5O)CCC[C@@]4(C)[C@@H]2CCC1(OC1OC(CO)C(O)C(OC2OC(CO)C(O)C(O)C2O)C1OC1OC(CO)C(O)C(O)C1O)C3 (stereo partly drawn) [Reb X, (13-[2-O-β-D-glucopyranosyl-3-O-β-D-glucopyranosyl-β-D-glucopyranosyl)oxy] ent kaur-16-en-19-oic acid-[2-O-β-D-glucopyranosyl-3-O-β-D-glycopyranosyl) ester]
Astringent taste: Number of panelists detected the attribute (panelists): 0 | Bitter taste: Number of panelists detected the attribute (panelists): 0 | Licorice taste: Number of panelists detected the attribute (panelists): 0 | Overall evaluation: Satisfactory (number of panelists of 20) (panelists): (20 of 20) | Quality of sweet taste: Clean (number of panelists of 20) (panelists): Clean (20 | Sweet Aftertaste: Number of panelists detected the attribute (panelists): 0 | Taste profile compared to already known steviol glycosides (panelists): superior taste profile | Solubility and appearance [1]: very soluble and clear (colorless) | Taste properties compared to Reb A drink ([2]; flavored zero caloric black tea drink, 250 ppm Reb X vs 250 ppm Reb A): much cleaner in finish with less sweetness linger and a more rounded overall sweetness profile | Reb X level closest in sweetness level to a 11.5 Brix high fructose corn syrup sweetened orange flavored sparkling beverage ([2]; zero caloric orange-flavored sparkling beverage base): 500 ppm and 550 ppm | Taste compared to Reb A-containing formulations ([2]; zero caloric orange-flavored sparkling beverage, Reb X 400 to 750 ppm in 50 ppm increments): significantly better than comparable Reb A-containing formulations | Taste properties compared to Reb A drink ([2]; zero calorie enhanced water drink, 200 ppm Reb X vs 200 ppm Reb A): cleaner in finish and had reduced sweetness linger and a more rounded overall sweetness taste quality
